Experiment: Solubility of complexes in isohexane (Method 1 or Method 2)
Format: physicochemical
Details: ambient temperature (20° C.-25° C.), mass includes residual solvent
Protocol: Solubility studies for all other complexes were performed using material as synthesized. […] Solvents used were sparged with nitrogen (30-60 minutes) and dried over 3 Å mole sieves. Unless stated otherwise all measurements were performed at ambient temperature (20° C.-25° C.).
General procedure: Solubility was determined using the following Method 1 or Method 2. For calculations, a value of 0.672 g/mL was used for the density of isohexane.
Method 1: A tared vial was loaded with a small amount of the complex (actual mass recorded, including any residual solvent as noted above, typically 5-30 mg). Then a small stir bar (8 mm) was added. Solvent was then added and the mixture was stirred rapidly (1000 rpm). […] This process was repeated until either a clear solution was obtained (no visible solids or murkiness) or the vial was full. As the mixture approached homogeneity (i.e., few remaining solids observed) the volume of the solvent additions was kept small (<1 mL) to minimize excess beyond the solvent required to achieve homogeneity. The stir bar was then removed and the mass of the mixture was measured. If a clear solution had formed then the solubility of the complex was calculated as a single value, based on the mass of complex and the amount of solvent added to achieve a homogeneous solution. If the mixture remained heterogeneous (visible solids or murky), then the value reported is given as being “less than” the calculated value.
Method 2: A measured amount of complex (actual mass recorded, including any residual solvent as noted above) was added to a tared vial, followed by a stir bar. Dry isohexanes were added in small portions and the resulting mixture was stirred after each portion of isohexanes. If a clear solution had formed then the solubility was reported as a range, the lower bound of solubility calculated using the total solvent added to achieve a homogenous solution and the upper bound of solubility calculated using the total solvent measured prior to achieving a homogenous solution. If the mixture remained heterogeneous (visible solids or murky), the upper bound of solubility was calculated using the total solvent added. Formula used to calculate solubility are listed below. Solvent present in the complex is included in the mass and formula weight of the complexes.

Row | Structure (SMILES) | Solubility (s) in Isohexane (wt %) | Solubility (s) in Isohexane [mM]
1 | CC(C)(C)c1cc2c(c(C34CC5CC(CC(C5)C3)C4)c1)[O][Zr-]1([CH3])([CH3])[O]c3c(cc(C(C)(C)C)cc3C34CC5CC(CC(C5)C3)C4)-c3ccccc3-c3cccc([n+]31)-c1ccccc1-2 [Complex 2] | 0.081 | –
2 | Cc1cc2[n+]3c(c1)-c1ccccc1-c1cc(C(C)(C)C)cc(C45CC6CC(CC(C6)C4)C5)c1[O][Zr-]3([CH3])([CH3])[O]c1c(cc(C(C)(C)C)cc1C13CC4CC(CC(C4)C1)C3)-c1ccccc1-2 [Complex 3] | <0.5 | <3.2

Source: patent publication US20250277066A1, “Substituted Pyridine-2,6-Bis(Phenylenephenolate) Complexes with Enhanced Solubility that are Useful as Catalyst Components for Olefin Polymerization” (ExxonMobil Chemical Patents Inc., priority 2022, published 2025)
